System: strawberries
Experiment: Average daily mass loss rate of coated strawberries stored at low relative humidity
Conditions: over 4 days, 10 mg/mL in ethanol, spray coated, 23-27° C., 40-55% humidity (FIG. 7A), listed as pure PA-2G formulation (712)
Protocol: FIG. 7A is a graph showing average daily mass loss rates for coated and uncoated harvested strawberries stored at low relative humidity levels for 4 days. The coating agents included various mixtures of PA-1G and PA-2G, as detailed below. Each bar in the graph represents average daily mass loss rates for a group of 15 strawberries. The strawberries corresponding to bar 702 were untreated (control group). The strawberries corresponding to bar 704 were treated with a solution for which the coating agent was substantially pure PA-1G. The strawberries corresponding to bar 706 were treated with a solution for which the coating agent was 75% PA-1G and 25% PA-2G by mass. The strawberries corresponding to bar 708 were treated with a solution for which the coating agent was 50% PA-1G and 50% PA-2G by mass. The strawberries corresponding to bar 710 were treated with a solution for which the coating agent was 25% PA-1G and 75% PA-2G by mass. The strawberries corresponding to bar 712 were treated with a solution for which the coating agent was substantially pure PA-2G. […] FIG. 7A is a graph showing average daily mass loss rates, measured over the course of 4 days, of the untreated strawberries and of the strawberries coated with one of the five solutions described above. […]

CCCCCCCCCCCCCCCC(=O)OC(CO)CO [PA-2G, 1,3-dihydroxypropan-2-yl palmitate]
average daily mass loss rate: 6.1%

— patent US20180368427A1, “Method of Reducing Spoilage in Harvested Produce During Storage and Shipping” (Apeel Technology, Inc., priority 2016, published 2018)
